Laboratory results: patent publication US8501722B2, “Methods and compositions for treating bacterial infection” (priority 2009, dated 2013)
“And” between values parts separate entries of the source, which are not always exact repeats. Identical values can stand only once. Like-named read-outs stand apart in the source and are kept apart here.

Columns and labels:
SK(+)GAS = assay: GAS growth by OD600 nm of culture; format: cell-based, Group A Streptococcus; settings: Streptococcus; for activity at 0.1 µg/mL: read-out: GAS Growth (% control), compound conc. 0.1 μg/ml; for activity at 0.3 µg/mL: read-out: GAS Growth (% control), compound conc. 0.3 μg/ml; for activity at 5 µg/mL: read-out: GAS Growth (% control), compound conc. 5 μg/ml; for activity at 10 µg/mL: read-out: GAS Growth (% control), compound conc. 10 μg/ml; for activity at 20 µg/mL: read-out: GAS Growth (% control), compound conc. 20 μg/ml
SK(+)GAS (UMAA2616) = assay: Survival of human plasminogen transgenic (Tg+) mice infected with GAS; format: in vivo; settings: starting one day after infection; for survival of Tg+ mice compared to DMSO control group: UMAA2616 infection, 575096 5 μg per day, 1S-22207 30 μg per day, intraperitoneally daily for 5 days; for survival rate of Tg+ mice compared to DMSO control group: 6*10^5 CFU SK(+)GAS, 5 μg per mouse intraperitoneally daily for 5 days
Protocol: To examine the in vivo efficacy of compounds CCGC, CCGE, and CCGF, Tg+ mice were first infected with 6*10^5 CFU SK(+)GAS, then injected with 5 μg of test compound per mouse intraperitoneally daily for 5 days, starting one day after infection. […] In some embodiments, small compound are delivered continuously through an ALZET® Osmotic Pump (DURECT Corporation, Cupertino, Calif.).
Tg+ mice are then used to test the efficacy of compounds in attenuating the virulence of GAS infection. 20 Tg+ mice are infected with 10^5 CFU of SK(+)GAS then injected with the estimated experimental doses of the compounds two hours later. Survival is monitored for 9 days, while a control group of Tg+ mice will be infected with SK(+)GAS injected with DMSO. The comparison of mortalities between the two groups is analyzed as described above in the toxicity test. Treating mice with compound post-infection helps avoid potential side-effects of toxic or growth inhibition of compound on SK(+)GAS at the time of infection. As a result, the effect of compound on mice survival is a more authentic reflection of the efficacy of compound on inhibiting GAS virulence. Possible scenarios include:
This example describes the in vivo efficacy of compound 575096. Human plasminogen transgenic mice (Tg+) were first infected with 10^5″^6 CFUUMAA2616, then injected with 5-30 lag of test compound per mouse intraperitoneally daily for 5 days, starting one day after infection.

SKKanGAS = assay: Growth-based turbidometric screen, SKKanGAS under kanamycin (kanamycin resistance gene under ska promoter); format: cell-based, Group A Streptococcus; settings: for effect on SKKanGAS and SK-GAS growth: dose response under kanamycin selection, FIG. 11
Excerpt: A GAS strain was generated to have kanamycin resistance gene under the control of ski promoter to be used to screen for SK inhibitors. A transgenic GAS has been generated in SK(+)GAS host so that kanamycin resistance gene is driven by ska promoter in an extrachromosomal plasmid. The engineered GAS strain (SKKanGAS) was also kanamycin resistant. This kanamycin resistance gene in SK(−)GAS strain is within the omega-Km2 element whose promoter is independent of ska promoter (Khil et al., J. Infect. Dis. 2003; 188:497-505; Ringdahl et al., J. Biol. Chem. 1998; 273:6424-6430). As a result, SK(−)GAS can serve as a control in the screen for SK promoter to weed out compounds that inhibit GAS growth or interfere with kanamycin resistance protein function. […] A cutoff criterion was set to select compounds that can inhibit 50% growth in SKKanGAS while inhibiting less than 10% growth in SK(−)GAS. A total of 95 compounds met this criterion. As a result, these compounds were chosen for dose response assays and pIC50 of growth inhibition of each hit compound was then estimated. […] An example is given as FIG. 10.
Only SKKanGAS is used for screening in the primary screening. Briefly, 30 μl THY medium containing 20 μg/ml kanamycin is first plated into 384-well plates (384 microtiter plate, Corning #3701) and compounds are added into the wells. SKKanGAS strain is grown to OD600 nm=0.8. SKKanGAS is then diluted 12.5 fold into 20 μg/ml kanamycin THY medium. SKKanGAS mixture (10 μl) is added into each well of the 384-well plates. […] The plates are cultured at 37° C. for 16-20 hours. Growth of bacteria in each well is measured by absorbance at 600 nm. Z′>0.5, which is compatible with high throughput screening, has been typically obtained with the 384-well plate format in which 55,000 small compounds have been screened. […] SKKanGAS is a BSL2 level agent and can be stored at −80° C. SKKanGAS can be cultured at 37° C. in THY or Bill medium which is commercially available (Fisher Scientific, Pittsburgh, Pa.).
Once hit compounds have been identified by the primary screening, they are applied to dose response assays with both SKKanGAS and SK(−)GAS stains. SKKanGAS and SK(−)GAS are grown in 20 μg/ml kanamycin with serial dilution of hit compounds (DMSO final concentration=1% in THY medium). Plates are incubated at 37° C. for 15-20 hours in a climate controlled room (humidity 50%). The absorbance is measured at 600 nm. pIC50 of growth inhibition of each hit compound is then determined. Compounds that with at least 10 fold lower IC50 in SKKanGAS than SK(−)GAS strain are identified and subjected to secondary confirmatory assay. As a result, dose response assay identifies and eliminates most nonspecific compounds that may inhibit GAS growth or interfere with kanamycin resistance protein function.

Protocol for streptokinase (SK): SK− Ecoli and SKCtr1's dose response relationship with these compounds were then examined.
The effects of 10 hit compounds out of the 23 identified were further tested by dose response assays. […] These compounds were tested for inhibition of ska expression by measuring SK activity in supernatants of GAS exposed to the test compound or control vehicle alone (DMSO). SK(+)GAS were cultured with hit compounds at a dose range of 10 nM to 100 μM at 37° C. for 16-20 hours. Supernatants of SK(+)GAS cultures were measured for SK activity using chromogenic substrate 2403 (Diapharma group Inc., West Chester, Ohio), according to the manufacturer's instruction and simultaneously monitored for nonspecific effects on GAS growth by measuring OD600 nm.
The positive compounds identified in dose response assays are subjected to SK assay to identify compounds inhibiting SK expression in SK(+)GAS. Briefly, SK(+)GAS is grown at the presence of hit compounds at a dose range determined by dose response assays within which SK(−) GAS growth is inhibited less than 10% while SKKanGAS growth is inhibited more than 50% under 20 μg/ml kanamycin.

Row | Structure (SMILES) | activity at 0.1 µg/mL (SK(+)GAS) [%] | activity at 0.3 µg/mL (SK(+)GAS) [%] | activity at 5 µg/mL (SK(+)GAS) [%] | activity at 10 µg/mL (SK(+)GAS) [%] | activity at 20 µg/mL (SK(+)GAS) [%] | survival of Tg+ mice compared to DMSO control group (SK(+)GAS (UMAA2616)) | SK Expression (% control) (streptokinase (SK); compound conc. 0.1 μg/ml) | SK Expression (% control) (streptokinase (SK); compound conc. 0.3 μg/ml) | SK Expression (% control) (streptokinase (SK); compound conc. 1.0 μg/ml) | SK Expression (% control) (streptokinase (SK); compound conc. 3 μg/ml) | SK Expression (% control) (streptokinase (SK); compound conc. 5 μg/ml) | SK Expression (% control) (streptokinase (SK); compound conc. 40 μg/ml) | effect on SKKanGAS and SK-GAS growth (SKKanGAS) | survival rate of Tg+ mice compared to DMSO control group (SK(+)GAS (UMAA2616)) | other results
1 | C=CCn1c(SCC#N)nc2c(c1=O)C(C)(C)Cc1ccccc1-2 [1S-22207] | 96 | 98 | 98 | 96 | 99 | significant improvement in survival | 103 % control and 108 % control and 97 % control and 95 % control | 103 % control and 104 % control and 95 % control and 108 % control | 102 % control and 108 % control and 99 % control and 77 % control | 62 % control and 46 % control and 83 % control and 47 % control | 64 % control and 49 % control and 80 % control | 22 % control and 25 % control and 40 % control | – | – | activity at 2.5 µg/mL (SK(+)GAS; read-out: GAS Growth (% control), compound conc. 2.5 μg/ml): 100%; activity at 40 µg/mL (SK(+)GAS; read-out: GAS Growth (% control), compound conc. 40 μg/ml): 113%; activity at 70 µg/mL (SK(+)GAS; read-out: GAS Growth (% control), compound conc. 70 μg/ml): 126%; SK Expression (% control) (streptokinase (SK); compound conc. 10 μg/ml): 39 % control and 38 % control and 29 % control and 33 % control and 34 % control; SK Expression (% control) (streptokinase (SK); compound conc. 20 μg/ml): 31 % control and 27 % control
2 | COC(=O)c1ccccc1Sc1c(-c2ccccc2)nc2ccccn12 [CCGC] | – | – | – | – | – | – | – | – | – | – | – | – | specific inhibition of SKKanGAS growth under kanamycin selection | No improvement | –
3 | C=CCn1c(SCCCC)nc2c(c1=O)C1(CCCCC1)Cc1ccccc1-2 [CCGE] | – | – | – | – | – | – | – | – | – | – | – | – | specific inhibition of SKKanGAS growth under kanamycin selection | significant improvement in survival rate | –
4 | COc1cc(C=CC(=O)c2cc(C)c(C)cc2C)cc(OC)c1OC [CCGF] | – | – | – | – | – | – | – | – | – | – | – | – | specific inhibition of SKKanGAS growth under kanamycin selection | trend toward improvement | –
5 | C=CCn1c(SCCCC)nc2c(c1=O)C1(CCCCC1)Cc1ccccc1-2 [compound 575096] | 97 | 102 | 101 | 102 | 84 | significant improvement in survival | 77 % control and 83 % control and 95 % control | 108 % control and 95 % control and 127 % control | 65 % control and 69 % control and 84 % control | 61 % control and 62 % control and 69 % control | 50 % control | 68 % control and 51 % control and 69 % control and 76 % control | – | – | activity at 1 µg/mL (SK(+)GAS; read-out: GAS Growth (% control), compound conc. 1 μg/ml): 102%; activity at 3 µg/mL (SK(+)GAS; read-out: GAS Growth (% control), compound conc. 3 μg/ml): 100%; SK Expression (% control) (streptokinase (SK); compound conc. 50 μg/ml): 65 % control and 66 % control and 83 % control; SK Expression (% control) (streptokinase (SK); compound conc. 70 μg/ml): 40 % control and 61 % control
6 | CC[C@H]1OC(=O)[C@H](C)[C@@H](O[C@H]2C[C@@](C)(OC)[C@@H](O)[C@H](C)O2)[C@H](C)[C@@H](O[C@@H]2O[C@H](C)C[C@H](N(C)C)[C@H]2O)[C@](C)(O)C[C@@H](C)C(=O)[C@H](C)[C@@H](O)[C@]1(C)O [erythromycin, reference compound] | – | – | – | – | – | – | – | – | – | – | – | – | – | – | SKKanGAS growth susceptibility to known antibiotics (SKKanGAS; preliminary screening with 2,000 known compounds (The Spectrum Collection)): susceptible
